Data published in patent US10954269B2, “Anti-inflammatory tripeptides” (Dr. August Wolff Gmbh & Co. KG Arzneimittel, priority 2013, dated 2021).

Key:
Conditions in all cases: substance 10^−9M
primary human T-cells = assay: Cytokine secretion on protein level in activated primary human T-cells (13-plex FACS / Luminex, supernatant); assay type: cell-based
Method in brief: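 Primary T-cells from peripheral blood of healthy volunteers, or HaCaT cells, were activated with PMA/Ionomycin or IFN-γ for 48 h and treated with tripeptides. Supernatants were collected 48 h and 72 h after stimulation and cytokines (IL-1, IL-2, IL-6, IL-12p70, IL-17, IFN-γ, TNF-α) were measured by 13-plex FACS.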

[1] = test system: human keratinocyte cell line (HaCaT); assay: Cytokine secretion on protein level in activated human keratinocyte cell line HaCaT (13-plex FACS / Luminex, supernatant); assay type: cell-based
Method in brief: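 Stimulus: PMA/Ionomycin or IFN-γ, 48 h; cells: HaCaT or human peripheral-blood T-cells; tripeptide treatment; readout: supernatant cytokines via 13-plex FACS or Luminex, 48–72 h post-stimulation.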

primary murine T-cells = assay: Cytokine secretion on protein level in activated primary murine T-cells (13-plex FACS / Luminex, supernatant); assay type: cell-based, C57BL/6 mice
Method in brief: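 T-cells from secondary lymphatic organs of naïve C57BL/6 mice, stimulated with PMA/Ionomycin or IFN-γ; supernatant cytokines measured by 13-plex FACS 48 h and 72 h after stimulation. In another run, PMA/Ionomycin-stimulated cells received compounds at 10^−7, 10^−9 and 10^−11 M, with IFN-γ, IL-17 and IL-10 measured by Luminex.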

[2] = primary human T-cells stimulated with IFN-γ
[3] = primary human T-cells stimulated with PBS
[4] = primary human T-cells stimulated with PMA/Ionomycin
[5] = HaCaT stimulated with PMA/Ionomycin
[6] = primary murine T-cells stimulated with IFN-γ
[7] = primary murine T-cells stimulated with PBS
[8] = primary murine T-cells stimulated with PMA/Ionomycin

H-(L)-Lys-(L)-Pro-Alb-NH2 [Example 10]
IL-1 cytokine concentration (primary human T-cells; [2]): 139.49 pg/mL | IL-2 cytokine concentration (primary human T-cells; [2]): 231.83 pg/mL | IL-4 cytokine concentration (primary human T-cells; [2]): 160.97 pg/mL | IL-5 cytokine concentration (primary human T-cells; [2]): 0 pg/mL | IL-6 cytokine concentration (primary human T-cells; [2]): 105.21 pg/mL | IL-9 cytokine concentration (primary human T-cells; [2]): 0 pg/mL | IL-10 cytokine concentration (primary human T-cells; [2]): 0 pg/mL | IL-12p70 cytokine concentration (primary human T-cells; [2]): 0 pg/mL | IL-13 cytokine concentration (primary human T-cells; [2]): 162.81 pg/mL | IL-17 cytokine concentration (primary human T-cells; [2]): 250.1 pg/mL | IL-22 cytokine concentration (primary human T-cells; [2]): 0 pg/mL | TNF-α cytokine concentration (primary human T-cells; [2]): 0 pg/mL | IL-1 cytokine concentration (primary human T-cells; [3]): 0 pg/mL | IL-2 cytokine concentration (primary human T-cells; [3]): 0 pg/mL | IL-4 cytokine concentration (primary human T-cells; [3]): 0 pg/mL | IL-5 cytokine concentration (primary human T-cells; [3]): 0 pg/mL | IL-6 cytokine concentration (primary human T-cells; [3]): 216.7 pg/mL | IL-9 cytokine concentration (primary human T-cells; [3]): 23.18 pg/mL | IL-10 cytokine concentration (primary human T-cells; [3]): 48.86 pg/mL | IL-12p70 cytokine concentration (primary human T-cells; [3]): 0 pg/mL | IL-13 cytokine concentration (primary human T-cells; [3]): 0 pg/mL | IL-17 cytokine concentration (primary human T-cells; [3]): 0 pg/mL | IL-22 cytokine concentration (primary human T-cells; [3]): 0 pg/mL | INF-α cytokine concentration (primary human T-cells; [3]): 0 pg/mL | TNF-α cytokine concentration (primary human T-cells; [3]): 21.65 pg/mL | IL-1 cytokine concentration (primary human T-cells; [4]): 878.53 pg/mL | IL-2 cytokine concentration (primary human T-cells; [4]): 5107.74 pg/mL | IL-4 cytokine concentration (primary human T-cells; [4]): 179.62 pg/mL | IL-5 cytokine concentration (primary human T-cells; [4]): 416.25 pg/mL | IL-6 cytokine concentration (primary human T-cells; [4]): 1255.58 pg/mL | IL-9 cytokine concentration (primary human T-cells; [4]): 461.98 pg/mL | IL-10 cytokine concentration (primary human T-cells; [4]): 729.43 pg/mL | IL-12p70 cytokine concentration (primary human T-cells; [4]): 0 pg/mL | IL-13 cytokine concentration (primary human T-cells; [4]): 1183.46 pg/mL | IL-17 cytokine concentration (primary human T-cells; [4]): 2234.39 pg/mL | IL-22 cytokine concentration (primary human T-cells; [4]): 0 pg/mL | INF-α cytokine concentration (primary human T-cells; [4]): 11538.53 pg/mL | TNF-α cytokine concentration (primary human T-cells; [4]): 4132.03 pg/mL | IL-1 cytokine concentration ([1]; HaCaT stimulated with IFN-γ): 0 pg/mL | IL-2 cytokine concentration ([1]; HaCaT stimulated with IFN-γ): 0 pg/mL | IL-4 cytokine concentration ([1]; HaCaT stimulated with IFN-γ): 183.12 pg/mL | IL-5 cytokine concentration ([1]; HaCaT stimulated with IFN-γ): 88.64 pg/mL | IL-6 cytokine concentration ([1]; HaCaT stimulated with IFN-γ): 346.73 pg/mL | IL-9 cytokine concentration ([1]; HaCaT stimulated with IFN-γ): 0 pg/mL | IL-10 cytokine concentration ([1]; HaCaT stimulated with IFN-γ): 0 pg/mL | IL-12p70 cytokine concentration ([1]; HaCaT stimulated with IFN-γ): 0 pg/mL | IL-13 cytokine concentration ([1]; HaCaT stimulated with IFN-γ): 1904.09 pg/mL | IL-17 cytokine concentration ([1]; HaCaT stimulated with IFN-γ): 189.1 pg/mL | IL-22 cytokine concentration ([1]; HaCaT stimulated with IFN-γ): 0 pg/mL | TNF-α cytokine concentration ([1]; HaCaT stimulated with IFN-γ): 0 pg/mL | IFN-γ cytokine concentration ([1]; HaCaT stimulated with PBS): 469.17 pg/mL | IL-1 cytokine concentration ([1]; HaCaT stimulated with PBS): 170.16 pg/mL | IL-2 cytokine concentration ([1]; HaCaT stimulated with PBS): 0 pg/mL | IL-4 cytokine concentration ([1]; HaCaT stimulated with PBS): 218.04 pg/mL | IL-5 cytokine concentration ([1]; HaCaT stimulated with PBS): 0 pg/mL | IL-6 cytokine concentration ([1]; HaCaT stimulated with PBS): 125.38 pg/mL | IL-9 cytokine concentration ([1]; HaCaT stimulated with PBS): 5.28 pg/mL | IL-10 cytokine concentration ([1]; HaCaT stimulated with PBS): 0 pg/mL | IL-12p70 cytokine concentration ([1]; HaCaT stimulated with PBS): 0 pg/mL | IL-13 cytokine concentration ([1]; HaCaT stimulated with PBS): 1864.02 pg/mL | IL-17 cytokine concentration ([1]; HaCaT stimulated with PBS): 230.84 pg/mL | IL-22 cytokine concentration ([1]; HaCaT stimulated with PBS): 0 pg/mL | TNF-α cytokine concentration ([1]; HaCaT stimulated with PBS): 0 pg/mL | IFN-γ cytokine concentration [1, 5]: 327.78 pg/mL | IL-1 cytokine concentration [1, 5]: 251.13 pg/mL | IL-2 cytokine concentration [1, 5]: 189.17 pg/mL | IL-4 cytokine concentration [1, 5]: 0 pg/mL | IL-5 cytokine concentration [1, 5]: 0 pg/mL | IL-6 cytokine concentration [1, 5]: 315.82 pg/mL | IL-9 cytokine concentration [1, 5]: 14.67 pg/mL | IL-10 cytokine concentration [1, 5]: 34.84 pg/mL | IL-12p70 cytokine concentration [1, 5]: 0 pg/mL | IL-13 cytokine concentration [1, 5]: 0 pg/mL | IL-17 cytokine concentration [1, 5]: 45.41 pg/mL | IL-22 cytokine concentration [1, 5]: 0 pg/mL | TNF-α cytokine concentration [1, 5]: 53.51 pg/mL | IL-1 cytokine concentration (primary murine T-cells; [6]): 77.81 pg/mL | IL-2 cytokine concentration (primary murine T-cells; [6]): 93.19 pg/mL | IL-4 cytokine concentration (primary murine T-cells; [6]): 81.11 pg/mL | IL-5 cytokine concentration (primary murine T-cells; [6]): 238.38 pg/mL | IL-6 cytokine concentration (primary murine T-cells; [6]): 139.83 pg/mL | IL-10 cytokine concentration (primary murine T-cells; [6]): 2024.06 pg/mL | IL-13 cytokine concentration (primary murine T-cells; [6]): 0 pg/mL | IL-17 cytokine concentration (primary murine T-cells; [6]): 0 pg/mL | IL-21 cytokine concentration (primary murine T-cells; [6]): 0 pg/mL | IL-22 cytokine concentration (primary murine T-cells; [6]): 57.35 pg/mL | IL-27 cytokine concentration (primary murine T-cells; [6]): 1.29 pg/mL | TNF-α cytokine concentration (primary murine T-cells; [6]): 32.42 pg/mL | IFN-γ cytokine concentration (primary murine T-cells; [7]): 0 pg/mL | IL-1 cytokine concentration (primary murine T-cells; [7]): 66.84 pg/mL | IL-2 cytokine concentration (primary murine T-cells; [7]): 132.67 pg/mL | IL-4 cytokine concentration (primary murine T-cells; [7]): 65.63 pg/mL | IL-5 cytokine concentration (primary murine T-cells; [7]): 229.8 pg/mL | IL-6 cytokine concentration (primary murine T-cells; [7]): 177.95 pg/mL | IL-10 cytokine concentration (primary murine T-cells; [7]): 923.65 pg/mL | IL-13 cytokine concentration (primary murine T-cells; [7]): 0 pg/mL | IL-17 cytokine concentration (primary murine T-cells; [7]): 0 pg/mL | IL-21 cytokine concentration (primary murine T-cells; [7]): 0 pg/mL | IL-22 cytokine concentration (primary murine T-cells; [7]): 71.47 pg/mL | IL-27 cytokine concentration (primary murine T-cells; [7]): 0 pg/mL | TNF-α cytokine concentration (primary murine T-cells; [7]): 77.08 pg/mL | IFN-γ cytokine concentration (primary murine T-cells; [8]): 2377.98 pg/mL | IL-1 cytokine concentration (primary murine T-cells; [8]): 173.61 pg/mL | IL-2 cytokine concentration (primary murine T-cells; [8]): 179.75 pg/mL | IL-4 cytokine concentration (primary murine T-cells; [8]): 56.84 pg/mL | IL-5 cytokine concentration (primary murine T-cells; [8]): 267.52 pg/mL | IL-6 cytokine concentration (primary murine T-cells; [8]): 164.16 pg/mL | IL-10 cytokine concentration (primary murine T-cells; [8]): 1182.68 pg/mL | IL-13 cytokine concentration (primary murine T-cells; [8]): 0 pg/mL | IL-17 cytokine concentration (primary murine T-cells; [8]): 86.12 pg/mL | IL-21 cytokine concentration (primary murine T-cells; [8]): 0 pg/mL | IL-22 cytokine concentration (primary murine T-cells; [8]): 44.47 pg/mL | IL-27 cytokine concentration (primary murine T-cells; [8]): 8.48 pg/mL | TNF-α cytokine concentration (primary murine T-cells; [8]): 33.37 pg/mL
